Patent US20210186947A1, “TOMM6-INTERACTING EXTRACTS AND COMPOUNDS FOR USE IN THE TREATMENT AND PROPHYLAXIS OF NERVOUS SYSTEM DISEASES, ATHEROSCLEROSIS, HEPATITIS B INFECTION AND HUMAN PAPILLOMA VIRUS (HPV) INFECTION” (ETH ZURICH, priority 2018, published 2021)

Legend:
Salmonella strain TA1537 = conditions: cited from earlier work
[1] = Body weight and food intake of B6 mice under oral treatment; conditions: oral 100 mg/kg/day for 4 weeks
[2] = test system: hippocampal neuronal cell bodies (NeuN); assay: Hippocampal neuronal loss in Tg2576 mice subjected to CUMS, binding assay with [125I]-labeled anti-NeuN antibody; format: in vivo; conditions: 15 months-old Tg2576 mice, 3 months of CUMS, treated during CUMS; compounds 10 mg/kg/d
[3] = Tolerability / toxicity in dogs during four weeks of oral treatment; format: in vivo; conditions: once daily oral dose up to 6 mg/kg/d
Description: Sub-chronic toxicity studies in dogs (German Shepherd dogs) and rats (Sprague Dawley rats) were performed by the Center of Applied Analytical and Veterinary Studies, Cairo, Egypt.

[4] = test system: atherosclerotic lesions in the aorta; assay: Atherosclerotic lesion area in oil red O-stained aortas of ApoE-/- mice; format: in vivo; conditions: 9-month-old ApoE-/- mice, 10 mg/kg/d in drinking water for 8 months
Description: ApoE−/− mice (Taconic Biosciences, Rensselaer, N.Y., USA) with deficiency of apolipoprotein E (ApoE−/−) due to disruption of the endogenous ApoE gene were used as a genetic model of atherosclerosis (Piedrahita et al., Proc. Natl. Acad. Sci. U.S.A., 89, 4471-4475, 1992). Atherosclerotic lesion area was determined by quantitative image analysis with oil red O-stained aortas. Total plasma cholesterol was determined by a commercial kit (Sigma). Mice were kept on a 12 h dark and 12 h light cycle, had free access to food and water, and were fed a standard rodent chow (AIN-95-based diet without vitamin E supplementation and with 7% fat and 0.15% cholesterol). For the study, we used ApoE−/− mice on a B6 (C57BL/6J) background and non-transgenic B6 control mice. Alizarin treatment (10 mg/kg/day in drinking water) was initiated at an age of 4 weeks and continued for eight months until the end of the observation period. […]
(§1) Alzheimer's Disease (AD) is the most frequent form of dementia in the elderly. […] Atherosclerotic lesion area was assessed with oil red O-stained aortas isolated from 9-month-old ApoE−/− mice (FIG. 17A). […] The aortic expression levels of neuronal marker genes of alizarin-treated ApoE−/− mice were determined compared to untreated ApoE−/− mice and untreated B6 mice without atherosclerosis (FIG. 17D,E).

neuropeptide Y (Npy) = assay: Whole genome microarray gene expression analysis of aortic genes: Npy; format: in vivo; conditions: ApoE-/- mice, 10 mg/kg/day for 8 months
Description: Whole genome microarray gene expression profiling was performed with aortic specimens isolated from 9-month-old ApoE−/− mice without treatment and with oral treatment for 8 months with alizarin (10 mg/kg/day), and untreated age-matched B6 control mice. Total RNA was isolated by the RNeasy Mini kit according to the protocol of the manufacturer (Qiagen). RNA purity was between 1.8 and 2 as determined by the absorbance ratio of 260/280. RNA quality and absence of signs of degradation were also controlled by RNA electrophoresis on a denaturing agarose gel by the presence of bright bands of 28S and 18S ribosomal RNA. Total RNA was processed for whole genome microarray gene expression profiling with the GeneChip One-Cycle Target Labeling System (Affymetrix) according to the protocol of the manufacturer (Affymetrix GeneChip Expression Analysis Technical Manual Rev. 5). […]
as §1

PHF-tau = assay: Hippocampal PHF-tau in the Tg-TauP301L model of tauopathy (AT8 antibody); format: in vivo; conditions: 12-month-old Tg-Tau-P301L mice treated for six months

O=C1c2ccccc2C(=O)c2c1ccc(O)c2O [Compound-1, 1,2-dihydroxyanthraquinone]
mutagenicity in the Ames test (Salmonella strain TA1537): could be mutagenic | body weight ([1]; 12-week-old B6 mice): did not significantly alter | daily food intake / food consumption ([1]; B6 mice): did not significantly alter | hippocampal neuronal loss [2]: prevented | adverse effects (behaviour, food intake, weight gain, cardiovascular parameters, blood cells, clinical chemistry) [3]: did not induce any detectable adverse effects | atherosclerotic lesion area, lower compared to untreated ApoE-/- mice [4]: 3.6 fold | aortic expression level of Npy (neuropeptide Y (Npy)): not down-regulated and maintained at the levels of the non-transgenic B6 controls | hippocampal content of PHF-tau (PHF-tau): significantly decreased hippocampal content of PHF-tau
